Measured values as given in US12589104B2, “Thiosaccharides for use in treating coronavirus infection” (priority 2020, dated 2026).
Where a name gives a salt, the structure may show the parent alone.

Legend:
[1] = molecular target: T1, SARS-CoV-2 RBD^original binding to ACE2 (Severe acute respiratory syndrome coronavirus 2, UniProt P0DTC2); conditions: for binding of RBD^original to ACE2 at one and two hours post exposure and wash: 5 mM drug for 1 hour, washed, ACE2 added after 60 or 120 minutes; for inhibition of binding of RBD^original to ACE2: RBD exposed to drug for 60 minutes, 0 to 20 mM
T1 construct: ACRO Biosystems); purchased ACRO Biosystems

[2] = system: SARS-CoV-2, isolate USA-WA1/2020; format: cell-based
[3] = system: SARS CoV2 (isolate USA-WA1/2020); parameters: species or system Syrian hamsters (Mesocricetus auratus); conditions: hamster, in vivo
[4] = cited from earlier work
SARS-2-S pseudovirus = format: cell-based, SARS-CoV-2
[5] = system: VSV pseudotype bearing the SARS-2-S protein (VSV-S); format: cell-based, SARS-CoV-2
[6] = molecular target: T2, RBD of SARS-2-S binding to ACE2 (Severe acute respiratory syndrome coronavirus 2, UniProt P0DTC2); parameters: species or system SARS-CoV-2
T2 construct: Recombinantly expressed RBD of SARS-2-S was first immobilized to a surface

[7] = format: physicochemical; conditions: 11 mg/mL in vehicle, Aerogen Solo vibrating mesh nebulizer

## NCCS [Cysteamine]
[1]
  binding of RBD^original to ACE2 at one and two hours post exposure and wash: binding inhibition was retained for two hours after drug removal
  inhibition of binding of RBD^original to ACE2: strong inhibitory effects
[2]
  cytopathic effects in virus-infected cells, virus exposed to drug prior to infection: significantly inhibited
[3]
  interleukin-6 levels in lung lavage: lower than control
  lung weights: lower than in control groups
  lymphocytes in BAL fluid: decreases
  neutrophils in BAL fluid: decreases
  total leukocyte counts in the bronchoalveolar lavage (BAL) fluid: lower than control
[4]
  pKa (thiol group): 8.2

## O=S(=O)(O)CCS [MESNA, 2-Mercaptoethane sulfonate, sodium salt]
[1]
  binding of RBD^original to ACE2 at one and two hours post exposure and wash: binding inhibition was retained for two hours after drug removal
  inhibition of binding of RBD^original to ACE2: strong inhibitory effects
SARS-2-S pseudovirus
  antiviral efficacy in vitro compared to NAC: superior antiviral efficacy in vitro

## OC1C(O)[C@H](O)C(CS)O[C@@H]1O[C@H]1OC(CS)[C@@H](O)C(O)C1O (stereo partly drawn) [MUC, 6,6′-dithiotrehalose]
[5]
  effectiveness for inhibiting viral entry compared to NAC: more effective than NAC
  inhibition of VSV-S cellular entry: inhibited VSV-S cellular entry
  inhibition of VSV-S entry: All three concentrations of MUC resulted in potent inhibition of VSV-S entry
[6]
  inhibition of binding of ACE2 to SARS-2-S: inhibited binding of ACE2 to SARS-2-S
  persistence of binding inhibition after drug is washed out: binding inhibition persists following drug contact
  potency in inhibiting ACE2 binding compared to NAC: stronger potency

## OC1C(O)[C@H](O)C(CS)O[C@@H]1O[C@@H]1OC(CS)[C@@H](O)C(O)C1O (stereo partly drawn) [MUC-031, 6,6′-dithiotrehalose]
[7]
  average mass median aerodynamic diameter (MMAD) of the exposure atmosphere: 2.60 μm

## CC(=O)N[C@@H](CS)C(=O)O [NAC, N-acetyl-L-cysteine]
[5]
  inhibition of VSV-S cellular entry: inhibited VSV-S cellular entry
  inhibition of VSV-S entry: only 5 and 25 mM of NAC resulted in significant cell entry inhibition
[6]
  inhibition of binding of ACE2 to SARS-2-S: inhibited binding of ACE2 to SARS-2-S

## NCCCNCCS [WR-1065]
[1]
  binding of RBD^original to ACE2 at one and two hours post exposure and wash: binding inhibition was retained for two hours after drug removal
  inhibition of binding of RBD^original to ACE2: strong inhibitory effects

## NCCCNCCSP(=O)(O)O [amifostine, Amifostine]
SARS-2-S pseudovirus
  pseudovirus cell entry after pretreatment of SARS-2-S pseudovirus with drug: did not inhibit viral cell entry

## N[C@@H](CSCC(=O)O)C(=O)O [carbocysteine, Carbocysteine]
[2]
  cytopathic effects in virus-infected cells, virus exposed to drug prior to infection: significantly inhibited
SARS-2-S pseudovirus
  pseudovirus cell entry after pretreatment of SARS-2-S pseudovirus with drug: did not inhibit viral cell entry
